Holding throughout (format): biochemical
For assay [1], the target named is T1, JAK3 (Homo sapiens, UniProt P52333).
T1 sequence (P52333 1-1124): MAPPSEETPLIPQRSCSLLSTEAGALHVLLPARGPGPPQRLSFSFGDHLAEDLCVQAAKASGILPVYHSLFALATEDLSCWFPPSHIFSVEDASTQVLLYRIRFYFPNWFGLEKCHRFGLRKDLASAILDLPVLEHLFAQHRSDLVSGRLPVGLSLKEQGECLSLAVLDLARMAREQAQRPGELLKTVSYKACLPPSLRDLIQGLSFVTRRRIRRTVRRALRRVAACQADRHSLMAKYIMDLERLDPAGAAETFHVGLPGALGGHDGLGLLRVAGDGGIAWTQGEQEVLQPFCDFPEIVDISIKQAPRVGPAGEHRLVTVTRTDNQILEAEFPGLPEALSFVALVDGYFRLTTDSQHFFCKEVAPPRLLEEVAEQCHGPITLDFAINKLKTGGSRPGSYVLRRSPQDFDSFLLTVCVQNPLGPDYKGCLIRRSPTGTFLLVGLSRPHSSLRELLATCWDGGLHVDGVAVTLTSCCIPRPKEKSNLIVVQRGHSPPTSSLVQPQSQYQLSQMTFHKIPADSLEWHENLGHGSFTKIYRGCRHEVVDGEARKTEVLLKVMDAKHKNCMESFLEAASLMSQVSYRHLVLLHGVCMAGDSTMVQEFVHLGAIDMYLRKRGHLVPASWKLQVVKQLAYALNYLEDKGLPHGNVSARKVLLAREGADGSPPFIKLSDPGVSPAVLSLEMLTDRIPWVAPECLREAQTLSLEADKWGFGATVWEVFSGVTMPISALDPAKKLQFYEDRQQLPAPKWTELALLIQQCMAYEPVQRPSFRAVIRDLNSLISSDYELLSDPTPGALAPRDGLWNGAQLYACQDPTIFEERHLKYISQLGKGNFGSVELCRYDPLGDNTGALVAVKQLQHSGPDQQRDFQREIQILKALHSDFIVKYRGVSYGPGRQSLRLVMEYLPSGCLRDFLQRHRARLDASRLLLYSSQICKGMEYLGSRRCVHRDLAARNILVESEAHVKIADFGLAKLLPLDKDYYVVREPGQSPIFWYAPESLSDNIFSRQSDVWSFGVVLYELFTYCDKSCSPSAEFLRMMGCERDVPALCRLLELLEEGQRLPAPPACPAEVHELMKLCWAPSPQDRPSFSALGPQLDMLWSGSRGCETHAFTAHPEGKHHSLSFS
Put plainly: Inhibition of a panel of kinases, in vitro HotSpot kinase assay: JAK3. The conditions noted are these: D-compounds panel data; 1 μM ATP; read-out: IC50 JAK3.

In assay [2] the target is LCK (Homo sapiens, UniProt P06239). Put plainly: Inhibition of a panel of kinases, in vitro HotSpot kinase assay: LCK. The conditions noted are these: D-compounds panel data; 1 μM ATP; read-out: IC50 LCK.
Chain of LCK (P06239 whole entry): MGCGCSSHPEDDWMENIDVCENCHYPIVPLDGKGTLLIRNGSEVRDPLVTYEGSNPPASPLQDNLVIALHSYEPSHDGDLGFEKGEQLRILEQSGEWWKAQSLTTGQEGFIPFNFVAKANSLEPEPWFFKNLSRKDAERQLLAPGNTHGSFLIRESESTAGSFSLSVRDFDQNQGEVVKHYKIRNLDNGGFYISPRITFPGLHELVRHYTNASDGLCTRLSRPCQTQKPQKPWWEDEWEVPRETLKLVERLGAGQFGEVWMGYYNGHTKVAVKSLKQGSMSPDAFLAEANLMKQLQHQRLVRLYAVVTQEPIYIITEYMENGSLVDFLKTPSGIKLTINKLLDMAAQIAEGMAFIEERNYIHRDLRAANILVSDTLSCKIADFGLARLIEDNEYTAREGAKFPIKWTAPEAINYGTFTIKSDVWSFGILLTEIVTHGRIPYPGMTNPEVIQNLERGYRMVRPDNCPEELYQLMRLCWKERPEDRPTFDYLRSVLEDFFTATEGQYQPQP
For assay [3], the target named is T2, ITK (Homo sapiens, UniProt Q08881).
T2 sequence (Q08881 1-620): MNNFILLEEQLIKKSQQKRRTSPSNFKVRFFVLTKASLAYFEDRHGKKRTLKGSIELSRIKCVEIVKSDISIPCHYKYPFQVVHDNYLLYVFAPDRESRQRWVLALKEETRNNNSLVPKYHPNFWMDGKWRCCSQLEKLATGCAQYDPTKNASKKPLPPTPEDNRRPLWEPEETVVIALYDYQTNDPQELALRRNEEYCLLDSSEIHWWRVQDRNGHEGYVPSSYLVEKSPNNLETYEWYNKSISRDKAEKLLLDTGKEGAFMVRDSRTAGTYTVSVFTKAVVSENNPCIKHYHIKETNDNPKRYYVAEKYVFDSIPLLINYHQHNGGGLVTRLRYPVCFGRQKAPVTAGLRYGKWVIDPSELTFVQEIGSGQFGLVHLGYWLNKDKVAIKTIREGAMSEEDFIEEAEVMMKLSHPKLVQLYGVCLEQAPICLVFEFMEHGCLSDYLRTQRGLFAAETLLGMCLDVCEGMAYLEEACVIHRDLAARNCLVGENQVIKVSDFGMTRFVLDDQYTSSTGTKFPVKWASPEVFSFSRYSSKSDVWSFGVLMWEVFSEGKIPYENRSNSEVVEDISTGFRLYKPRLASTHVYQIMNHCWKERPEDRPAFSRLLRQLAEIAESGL
As to the kind of experiment: Inhibition of a panel of kinases, in vitro HotSpot kinase assay: ITK. As to conditions: D-compounds panel data; 1 μM ATP. On the procedure:
(§1) The degree of inhibition of a panel of kinases is determined using the in vitro HotSpot kinase assay (purified enzymes, ^33P-ATP, an appropriate substrate and 1 μM ATP).

Assay [4] deals with EGFR (Homo sapiens, UniProt P00533). Put plainly: Inhibition of a panel of kinases, in vitro HotSpot kinase assay: EGFR. As to conditions: D-compounds panel data; 1 μM ATP. On the procedure: as §1
Chain of EGFR (P00533 25-1210): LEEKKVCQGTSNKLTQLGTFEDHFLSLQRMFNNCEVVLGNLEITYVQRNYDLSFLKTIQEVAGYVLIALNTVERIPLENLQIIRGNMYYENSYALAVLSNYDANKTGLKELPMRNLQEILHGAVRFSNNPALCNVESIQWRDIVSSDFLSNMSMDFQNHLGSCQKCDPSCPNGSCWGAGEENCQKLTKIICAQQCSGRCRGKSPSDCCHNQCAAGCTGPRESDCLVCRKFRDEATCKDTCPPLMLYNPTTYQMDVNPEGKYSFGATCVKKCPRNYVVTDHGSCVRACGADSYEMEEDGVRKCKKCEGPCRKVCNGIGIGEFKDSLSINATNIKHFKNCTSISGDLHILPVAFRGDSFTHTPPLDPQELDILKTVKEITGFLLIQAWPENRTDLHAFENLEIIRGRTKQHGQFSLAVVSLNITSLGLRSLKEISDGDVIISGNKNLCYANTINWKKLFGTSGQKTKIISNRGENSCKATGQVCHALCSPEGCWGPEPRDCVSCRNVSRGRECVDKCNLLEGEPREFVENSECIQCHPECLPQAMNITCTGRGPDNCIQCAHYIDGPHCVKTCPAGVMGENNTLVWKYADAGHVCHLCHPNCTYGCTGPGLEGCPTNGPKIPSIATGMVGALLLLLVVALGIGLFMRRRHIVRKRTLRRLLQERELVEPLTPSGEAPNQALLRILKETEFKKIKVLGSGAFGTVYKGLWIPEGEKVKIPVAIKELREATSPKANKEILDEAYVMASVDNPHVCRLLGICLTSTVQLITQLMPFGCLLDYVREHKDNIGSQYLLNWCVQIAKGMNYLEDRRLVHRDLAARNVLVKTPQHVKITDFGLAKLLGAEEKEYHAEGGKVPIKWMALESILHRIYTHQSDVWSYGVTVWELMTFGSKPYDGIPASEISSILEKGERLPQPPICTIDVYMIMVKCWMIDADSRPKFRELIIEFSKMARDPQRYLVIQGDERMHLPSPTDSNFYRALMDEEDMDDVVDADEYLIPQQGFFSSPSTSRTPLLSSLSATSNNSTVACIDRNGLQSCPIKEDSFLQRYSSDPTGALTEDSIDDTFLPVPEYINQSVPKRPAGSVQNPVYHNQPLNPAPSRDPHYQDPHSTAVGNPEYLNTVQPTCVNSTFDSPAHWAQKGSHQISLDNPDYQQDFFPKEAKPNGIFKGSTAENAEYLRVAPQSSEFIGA

Bounds are passed on as bounds.

By IC50 is commonly meant the point on the concentration scale where inhibition reaches its midpoint. `Cn1cc(Nc2nc(N3CCC[C@@H]4[C@H]3CCCN4C(=O)c3ccc(C4CC4)cc3)cnc2C(N)=O)cn1` [Example D-46, 5-I[(4aR,8aR)-5-(4-cyclopropylbenzoyl)-decahydro-1,5-naphthyridin-1-yl]-3-[(1-methyl-1H-pyrazol-4-yl)amino]pyrazine-2-carboxamide]: the IC50 in assay [1] fell in the range of 1 to 10 µM; in assay [2], 0.1 to 1 µM; in assay [3] it was 1 to 10 µM; in assay [4], 0.1 to 1 µM.
As to `Cn1cc(Nc2nc(N3CCC[C@@H]4[C@H]3CCN4C(=O)c3ccccc3)cnc2C(N)=O)cn1` (racemic) [Example D-54, (racemic)-cis-5-{1-benzoyl-octahydro-1H-pyrrolo[3,2-b]pyridin-4-yl}-3-[(1-methyl-1H-pyrazol-4-yl)amino]pyrazine-2-carboxamide], the IC50 in assay [1] is 1 to 10 µM; in assay [2], 0.1 to 1 µM; in assay [3] it was 1 to 10 µM; in assay [4], more than 10 µM.
As for `C[C@@H]1[C@H](NC(=O)N(C)C)CCCN1c1cnc(C(N)=O)c(Nc2ccc(N3CCN(C)CC3)cc2F)n1` [Example D-52, 5-[(2R,3R)-3-[(dimethylcarbamoyl)amino]-2-methylpiperidin-1-yl]-3-{[2-fluoro-4-(4-methylpiperazin-1-yl)phenyl]amino}pyrazine-2-carboxamide], the IC50 in assay [1] was more than 10 µM; in assay [2], 1 to 10 µM; in assay [3], 0.1 to 1 µM; in assay [4], 1 to 10 µM.
Consider `C[C@@H]1[C@H](NC(=O)c2ccc(C3CC3)nc2)CCCN1c1cnc(C(N)=O)c(Nc2ccc(OC3CCC(F)(F)CC3)cc2)n1` [Example D-48, 5-[(2R,3R)-3-(6-cyclopropylpyridine-3-amido)-2-methylpiperidin-1-yl]-3-({4-[(4,4-difluorocyclohexyl)oxy]phenyl}amino)pyrazine-2-carboxamide], for which the IC50 is 1 to 10 µM in assay [1], more than 10 µM in assay [2], more than 10 µM in assay [3] and more than 10 µM in assay [4].
`Cc1csc(Nc2nc(N3CCC[C@@H](NC(=O)c4ccc(C5CC5)cc4F)[C@H]3C)cnc2C(N)=O)n1` [Example D-63, 5-[(2R,3R)-3-(4-cyclopropyl-2-fluorobenzamido)-2-methylpiperidin-1-yl]-3-[(4-methyl-1,3-thiazol-2-yl)amino]pyrazine-2-carboxamide]: the IC50 in assay [1], in assay [2], in assay [3] and in assay [4] was more than 10 µM throughout.
As for `C[C@@H]1[C@H](NC(=O)c2ccc(C3CC3)cc2)CCCN1c1cnc(C(N)=O)c(Nc2ccc(CN3CCOCC3)cc2)n1` [Example D-316, 5-[(2R,3R)-3-(4-cyclopropylbenzamido)-2-methylpiperidin-1-yl]-3-{[4-(morpholin-4-ylmethyl)phenyl]amino}pyrazine-2-carboxamide], the IC50 in assay [1] was 1 to 10 µM; in assay [2] it was 0.01 to 0.1 µM; in assay [3], 0.1 to 1 µM; in assay [4] it was 0.1 to 1 µM.
On to `C[C@@H]1C[C@H](NC(=O)c2ccc(C3CC3)cc2)CN(c2cnc(C(N)=O)c(Nc3cnn(C)c3)n2)C1` [Example D-32, 5-[(3S,5R)-3-(4-cyclopropylbenzamido)-5-methylpiperidin-1-yl]-3-[(1-methyl-1H-pyrazol-4-yl)amino]pyrazine-2-carboxamide], for which the IC50 was more than 10 µM in assay [1], 1 to 10 µM in assay [2], more than 10 µM in assay [3] and more than 10 µM in assay [4].
With `C[C@H]1C[C@@H](NC(=O)c2ccc(C3CC3)cc2)CN(c2cnc(C(N)=O)c(Nc3cnn(C)c3)n2)C1` [Example D-30, 5-[(3R,5S)-3-(4-cyclopropylbenzamido)-5-methylpiperidin-1-yl]-3-[(1-methyl-1H-pyrazol-4-yl)amino]pyrazine-2-carboxamide], the IC50 in assay [1] is more than 10 µM; in assay [2] it was 0.1 to 1 µM; in assay [3], 1 to 10 µM; in assay [4], more than 10 µM.
For the compound `CN1CCN(C(=O)c2ccc(Nc3nc(N[C@H]4CC[C@@H](NC(=O)N(C)C)CC4)cnc3C(N)=O)cc2)CC1` [Example D-72, 3-{[4-(4-methylpiperazine-1-carbonyl)phenyl]amino}-5-{[(1s,4s)-4-[(dimethylcarbamoyl)amino]cyclohexyl]amino}pyrazine-2-carboxamide], the IC50 in assay [1] was in the range of 1 to 10 µM; in assay [2], 0.01 to 0.1 µM; in assay [3], 1 to 10 µM; in assay [4], 1 to 10 µM.
Regarding `C[C@@H]1[C@H](NC(=O)c2ccc(C3CC3)cc2F)CCCN1c1cnc(C(N)=O)c(Nc2nc3c(s2)CN(C)CC3)n1` [Example D-62, 5-[(2R,3R)-3-(4-cyclopropyl-2-fluorobenzamido)-2-methylpiperidin-1-yl]-3-({5-methyl-4H,5H,6H,7H-[1,3]thiazolo[5,4-c]pyridin-2-yl}amino)pyrazine-2-carboxamide], the IC50 in assay [1], in assay [2], in assay [3] and in assay [4] was more than 10 µM each time.
In the case of `Cc1cc(Nc2nc(N3C[C@@H](NC(=O)N(C)C)CC[C@@H]3C)cnc2C(N)=O)sn1` [Example D-76, 5-[(2S,5S)-5-[(dimethylcarbamoyl)amino]-2-methylpiperidin-1-yl]-3-[(3-methyl-1,2-thiazol-5-yl)amino]pyrazine-2-carboxamide], the IC50 in assay [1] was 1 to 10 µM; in assay [2] it was more than 10 µM; in assay [3], more than 10 µM; in assay [4], 1 to 10 µM.
Consider `C[C@@H]1[C@H](NC(=O)c2ccc(C3CC3)cc2F)CCCN1c1cnc(C(N)=O)c(Nc2ccc(N3CCOCC3)cc2)n1` [Example D-73, 5-[(2R,3R)-3-(4-cyclopropyl-2-fluorobenzamido)-2-methylpiperidin-1-yl]-3-{[4-(morpholin-4-yl)phenyl]amino}pyrazine-2-carboxamide], for which the IC50 in assay [1] is more than 10 µM; in assay [2], 1 to 10 µM; in assay [3] it was 0.1 to 1 µM; in assay [4], 1 to 10 µM.
Take `Cc1cc(Nc2nc(N3C[C@@H](NC(=O)c4ccc(C5CC5)cc4F)CC[C@@H]3C)cnc2C(N)=O)sn1` [Example D-78, 5-[(2S,5S)-5-(4-cyclopropyl-2-fluorobenzamido)-2-methylpiperidin-1-yl]-3-[(3-methyl-1,2-thiazol-5-yl)amino]pyrazine-2-carboxamide]: the IC50 in assay [1] fell in the range of 1 to 10 µM; in assay [2], 0.1 to 1 µM; in assay [3], 1 to 10 µM; in assay [4], 0.1 to 1 µM.
Turning to `C[C@@H]1[C@H](NC(=O)c2ccc(C3CC3)cc2)CCCN1c1cnc(C(N)=O)c(Nc2ccc(N3CCN(C)CC3)cc2)n1` [Example D-81], the IC50 in assay [1] lay in the range of 1 to 10 µM; in assay [2], 0.01 to 0.1 µM; in assay [3] it was 0.1 to 1 µM; in assay [4], 0.1 to 1 µM.
Regarding `CN1CCN(C(=O)c2ccc(Nc3nc(N[C@H]4CC[C@@H](NC(=O)c5ccc(C6CC6)cc5F)CC4)cnc3C(N)=O)cc2)CC1` [Example D-71, 3-{[4-(4-methylpiperazine-1-carbonyl)phenyl]amino}-5-{[(1 s,4s)-4-(4-cyclopropyl-2-fluorobenzamido)cyclohexyl]amino}pyrazine-2-carboxamide], the IC50 in assay [1] was in the range of 0.01 to 0.1 µM; in assay [2] it was 0.01 to 0.1 µM; in assay [3], 1 to 10 µM; in assay [4], 0.1 to 1 µM.

For the origin of these results see patent publication US20210070748A1, “INHIBITORS OF BRUTONS TYROSINE KINASE” (Pharmacyclics LLC, priority 2015, published 2021).
